Key:
[1] = system: Ku70/FLIP complex; assay: Ku70 immunoprecipitation with FLIP immunoblot in IPF-lung myofibroblasts; type: cell-based, human; conditions: CMH 30 μM, 72 h
Procedure: (§1) Human lung myofibroblasts Differentiated fibroblasts from IPF-lungs and controls from patient lung biopsies performed for tumor diagnosis were obtained under a protocol detailed in Wallach-Dayan et al., J. Autoimmun. 59: 67-76, 2015. LL 97A (AlMy) (ATCC® CCL-191™)-IPF-lung, and LL 24 (ATCC® CCL-151™)-normal lung fibroblast cell lines were used.
Immunoprecipitation and immunoblotting Standard protocols were performed as described in Golan-Gerstl et al., Am. J. Respir. Cell Mol. Biol. 47: 271-279, 2012.
(§2) FLIP downregulation from an OD of 1.85 to 0.49 (about 3.5-fold) was detected in WB (FIG. 4F), and a […] from a mean fluorescence intensity (MFI)=10^3 to only 10^1 was detected with flow cytometry (FIG. 4G). Thus, SIRT1-mediated Ku70-deacetylation stabilizes IPF-lung myofibroblast FLIP via Ku70/FLIP complex. This effect of CMH on Ku70 further disrupts Ku70/FLIP complex and destabilizes FLIP in IPF-lung myofibroblasts.

[2] = system: FLIP; assay: FLIP protein by Western blot and flow cytometry in IPF-lung myofibroblasts; type: cell-based, human; conditions: CMH 30 μM, 72 h
Procedure: as §1
FLIP protein in lung myofibroblasts Standard WB and flow cytometry were performed as described in Cohen et al., Am. J. Respir. Cell Mol. Biol. 40: 231-238, 2009.
as §2
IPF cell line ATCC-191 (0.5×10^6), were exposed in culture (10% DMEM) to a compound of Formula 6 (1 or 3 μM) vs. 4% DMSO (vehicle) for 16 h. Ku70 immunoprecipitation with subsequent pan-acetyl (FIG. 8A) and immunoblots of Ku70 with anti-Ku70 mAb (FIG. 8B) or FLIP with anti-FLIP mAb (FIG. 8C) were measured. […] IPF-lung myofibroblasts decreased FLIP expression from an OD of 1.00 to 0.51 (about twofold, FIG. 8C).
IPF cell line ATCC-191 (0.5×10^6), were exposed in culture (10% DMEM) to a compound of Formula 12 (1 μM), vs. 4% DMSO (vehicle) for 16 h. Immunoblots of FLIP with anti-FLIP mAb were performed (FIG. 9). […] Thus, the compound of Formula 12 attenuates FLIP stabilization in IPF-lung myofibroblast.

[3] = biological target: T1, HDAC6 (Homo sapiens, UniProt Q9UBN7); conditions: prostate cancer cells; cited from earlier work
T1 sequence (Q9UBN7 1-1215): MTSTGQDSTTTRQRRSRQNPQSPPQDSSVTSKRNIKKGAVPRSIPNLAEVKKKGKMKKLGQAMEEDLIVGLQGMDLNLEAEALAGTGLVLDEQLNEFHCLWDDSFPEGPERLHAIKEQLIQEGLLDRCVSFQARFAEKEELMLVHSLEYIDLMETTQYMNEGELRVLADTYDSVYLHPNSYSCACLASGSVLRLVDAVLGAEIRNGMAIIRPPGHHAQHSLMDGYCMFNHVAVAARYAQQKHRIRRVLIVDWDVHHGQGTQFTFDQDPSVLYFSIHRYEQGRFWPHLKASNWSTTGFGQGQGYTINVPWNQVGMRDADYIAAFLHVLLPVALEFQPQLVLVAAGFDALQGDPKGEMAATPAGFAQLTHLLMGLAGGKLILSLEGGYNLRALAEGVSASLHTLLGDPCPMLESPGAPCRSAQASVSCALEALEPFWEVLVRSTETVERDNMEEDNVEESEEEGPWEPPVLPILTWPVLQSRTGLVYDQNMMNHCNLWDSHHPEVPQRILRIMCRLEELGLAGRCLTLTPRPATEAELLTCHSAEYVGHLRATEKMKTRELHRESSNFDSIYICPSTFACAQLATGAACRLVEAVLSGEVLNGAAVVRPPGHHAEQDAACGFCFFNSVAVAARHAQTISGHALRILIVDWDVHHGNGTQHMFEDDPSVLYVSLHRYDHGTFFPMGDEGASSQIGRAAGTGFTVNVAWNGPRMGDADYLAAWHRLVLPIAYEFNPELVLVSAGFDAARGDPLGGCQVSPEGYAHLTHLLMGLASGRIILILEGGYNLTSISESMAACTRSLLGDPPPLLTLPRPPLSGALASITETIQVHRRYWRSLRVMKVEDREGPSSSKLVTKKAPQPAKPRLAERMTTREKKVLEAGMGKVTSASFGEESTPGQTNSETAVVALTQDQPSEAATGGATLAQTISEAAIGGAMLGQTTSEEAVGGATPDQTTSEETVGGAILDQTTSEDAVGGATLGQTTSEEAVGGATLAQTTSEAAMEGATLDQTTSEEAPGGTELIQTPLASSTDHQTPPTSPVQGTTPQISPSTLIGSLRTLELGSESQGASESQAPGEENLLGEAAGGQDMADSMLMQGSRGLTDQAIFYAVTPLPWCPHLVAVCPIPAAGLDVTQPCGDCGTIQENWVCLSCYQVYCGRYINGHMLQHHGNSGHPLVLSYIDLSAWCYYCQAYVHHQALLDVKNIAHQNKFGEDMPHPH

[4] = biological target: T2, HDAC10 (Homo sapiens, UniProt Q969S8); conditions: prostate cancer cells; cited from earlier work
T2 sequence (Q969S8 1-669): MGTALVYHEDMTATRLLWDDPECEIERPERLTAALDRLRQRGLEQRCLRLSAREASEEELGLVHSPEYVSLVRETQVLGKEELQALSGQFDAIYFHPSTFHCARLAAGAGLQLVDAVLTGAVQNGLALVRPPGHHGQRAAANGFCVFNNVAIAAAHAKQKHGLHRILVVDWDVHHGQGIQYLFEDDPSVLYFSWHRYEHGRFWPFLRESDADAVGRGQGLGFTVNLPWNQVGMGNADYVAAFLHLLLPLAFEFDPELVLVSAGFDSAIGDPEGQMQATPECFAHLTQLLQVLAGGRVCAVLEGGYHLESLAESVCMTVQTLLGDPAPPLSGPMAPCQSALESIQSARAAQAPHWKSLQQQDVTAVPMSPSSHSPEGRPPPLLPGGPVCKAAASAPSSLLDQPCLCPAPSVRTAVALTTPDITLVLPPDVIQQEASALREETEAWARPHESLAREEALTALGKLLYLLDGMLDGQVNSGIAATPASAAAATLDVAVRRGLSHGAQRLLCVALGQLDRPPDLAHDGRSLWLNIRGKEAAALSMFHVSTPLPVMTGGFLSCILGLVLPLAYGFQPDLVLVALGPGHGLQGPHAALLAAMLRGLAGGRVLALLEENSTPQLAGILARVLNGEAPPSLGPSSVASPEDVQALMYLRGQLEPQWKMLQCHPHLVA

## Cc1cc(Cl)ccc1OCCCC(=O)NO [CMH, 4-(4-chloro-2-methylphenoxy)-N-hydroxybutanamide]
[1]
  Decrease of Ku70/FLIP complex: about 1.5 fold
[1]; from 6.2
  Ku70/FLIP complex in FLIP-IB: 4.1 OD
[2]
  FLIP downregulation in WB: about 3.5 fold
  FLIP reduction by flow cytometry: 60%
[2]; from 1.85
  FLIP OD in WB: 0.49 OD
[2]; from 10^3
  FLIP mean fluorescence intensity (MFI), flow cytometry: 10^1
[3]
  Inhibition of HDAC6: Selective inhibition
[4]
  Inhibition of HDAC10: not inhibited
